Like-named read-outs stand apart in the source and are kept apart here.
Key:
[1] = system: KG1 cells; assay: in vivo; format: in vivo; details: for CR / cures / log cell kill-gross (LCK-g): Compound (A) 20 mg/kg IV days 16-20, alone or combined; for tumor response, oral consolidation: after IV induction
Procedure: (§1) Solutions were kept on ice and administered as a bolus within 1 hour after formulation preparation. The volume of injection was 0.2 mL per mouse.
(§2) Eight-week-old female SCID mice were purchased from Charles River. The Committee of Animal Studies at Sanofi approved the protocol for animal experimentation. This protocol and all laboratory procedures comply with the French Legislation, which implements the European Directives. Animals were received at least one week before the experiment to allow acclimatization. The animals were kept under a natural daylight cycle and given food and water ad libitum.
(§3) When the tumor reached approximately 1000 mg, it was removed from the donor mouse, cut into fragments (2-3 mm diameter), placed in a phosphate buffer saline, and implanted bilaterally with a 12-gauge trocar. Tumor fragments were propagated until stable growth behavior occurred (a stable doubling time), before using in experiments. Distribution was performed using body weight and tumor weight criteria with the “Newlab oncology” software (Newlab).
(§4) When ΔT/ΔC values are negative, the percentage of regression is evaluated. Partial regression (PR) is defined as a decrease ≧50% of tumor volume at treatment initiation. Complete regression (CR) is defined as a decrease in tumor volume below the limit of palpation (T=10 mm^3). At study end, the number of tumor-free survivors (TFS), which correspond to mice without any detectable tumor, was determined. Both drug-related deaths and maximum percent relative mean net body weight loss were also determined. Median times to reach tumor target size were compared using Log-Rank or Kruskal-Wallis multiple comparisons tests. A body weight loss nadir (mean of group)>20% or 10% drug-related deaths were considered to indicate an excessive toxic dosage.
(§5) where T is the median time (in days) required for the treatment group tumors to reach a predetermined size (eg, 1000 mg), and C is the median time tumors to reach the same size (in days) for the vehicle group of each schedule. Tumor-free survivors are excluded from these calculations (cures are tabulated separately). T-C is the tumor growth delay and Td is the tumor doubling time in days. […] LCK-g values can be translated into an activity rating, according to the Southern Research Institute (SRI) criteria: […]

[2] = in vivo; format: in vivo; details: female, SCID, mouse, in vivo; daily IV
Procedure: as §1, §2, §3, §4, §5

[3] = system: granulomonocytic progenitors (CFU-GM); assay: Normal myeloid progenitor cell clonogenic assay (CFU-GM); format: cell-based; details: Homo sapiens, 336 h, median over normal myeloid progenitor samples, 14 days
Procedure: (§6) For in vitro studies, compound (A) was dissolved at 10 mM in DMSO and diluted in complete RPMI-1640 medium or in phenol red-free complete RPMI-1640 medium in sterile 96-well polystyrene cell culture plates. For in vivo studies, compound (A) was prepared for intravenous (IV) or intraperitoneal (IP) administration by mixing 22% PEG400 with 5% solutol and 73% […]. For oral administration, compound (A), was prepared in a generally regarded as safe (GRAS) formulation composed of 21% labrasol with 5% solutol and 74% HCL 0.001N. Solutions were kept on ice and administered as a bolus within 1 hour after formulation preparation. The volume of injection was 0.2 mL per mouse.
(§7) Fresh CD34^+ human bone marrow cells were washed twice in Iscove modified Dulbecco medium (IMDM) containing 10% FCS and resuspended in H4230 medium supplemented with 10% 5637-conditioned medium for CFU-GM growth, in H4435 medium for CFU-M growth, and in H4535 medium for BFU-E growth. H4230, H4435, and H4535 medium were purchased from Stem Cell Technologies. The cells were then plated in 35-mm Petri dishes and incubated in a humidified CO2 incubator (5% CO2, 37° C.) for 14 days. Colonies (>50 cells) were then scored under an inverted microscope.

[4] = system: leukemia progenitors (CFU-L) of AML patient samples; assay: Myeloid leukemic cell clonogenic assay on AML patient samples (ex vivo); format: cell-based, human; details: for IC50: Homo sapiens
Procedure: Hematological malignant cell lines were obtained from Deutsche Sammlung von Mikroorganismen and Zellkulturen GmbH (Braunschweig) and cultured in complete RPMI-1640 medium containing 10% fetal bovine serum and antibiotics. Primary AML cells were obtained from patients seen at Toulouse Hospital (Toulouse, France) at the time of diagnosis and after written informed consent. All samples were evaluated for karyotypic abnormalities, immunologic phenotype, FLT3-acquired activating mutations (internal tandem duplications and kinase domain mutations), t (Mizuki M. et al., Blood 2000 96: 3907-3914; Fiebig H. H. et al., Eur. J. Cancer 2004, 40: 802-820) and inv (Bonnet D. et al., Nat Med 1997 3: 730-737) mutations, and c-kit receptor-acquired mutations. Samples were stored in the Hemopathies Inserm Midi-Pyrénées (HIMIP) collection. Mononuclear cells were separated through a Ficoll-Hypaque density gradient.
as §6
The assay is as described by Récher and colleagues (Récher C. et al., Blood 2005; 105:2527-2534) with slight modifications. Briefly, cells were washed twice in PBS and suspended at 1×10^5 cell/mL in H4230 medium (Stem Cell Technologies) supplemented with 10% 5637-conditioned medium and appropriate dilutions of COMPOUND (A). Cells were then plated on 35 mm petri dishes and incubated at 37° C. in 5% CO2, fully humidified atmosphere. After 7 days, colonies (more than 20 cells) and clusters (more than 5 cells) were scored using an inverted microscope.

[5] = system: CML-T1; assay: Human chronic leukaemia CML-T1 implanted in SCID mice; format: in vivo; details: Cytarabine 200 mg/kg IP days 8, 12, 16; COMPOUND (A) 10 mg/kg IP days 8, 9, 11-17, 19; alone or combined
Procedure: Food and water were given ad libitum.
as §5

[6] = system: KG1a cells; assay: Tumor implantation study in SCID mice bearing KG1a cells; format: in vivo; details: for ΔT/ΔC: evaluated on day 32; for cures: day 120
Procedure: as §6, §2
All tumor cell lines were obtained from DSMZ GmbH. Initially, cell lines were cultured in RPMI 1640 containing 10% FCS and antibiotics, and implanted subcutaneously in SCID mice (10^7 cells/mouse). When the tumor reached approximately 1000 mg, it was removed from the donor mouse, cut into fragments (2-3 mm diameter), placed in a phosphate buffer saline, and implanted bilaterally with a 12-gauge trocar. Tumor fragments were propagated until stable growth behavior occurred (a stable doubling time), before using in experiments. Distribution was performed using body weight and tumor weight criteria with the “Newlab oncology” software (Newlab).
as §4

[7] = system: erythroblastic BFU-E progenitors; assay: Normal myeloid progenitor cell clonogenic assay (BFU-E); format: cell-based; details: Homo sapiens, 336 h, median over normal myeloid progenitor samples, 14 days
Procedure: as §6, §7

[8] = Cytarabine 31.5 mg/kg IP days 16-22
[9] = very advanced KG1 tumors (1000 mg), 25 mg/kg IV daily day 22-30

With CC(C)(C)NC(=O)Nc1nc2nc(Nc3ccc4nsnc4c3)ncc2cc1-c1c(Cl)cccc1Cl [Compound (A), N-[2-(2,1,3-benzothiadiazol-5-ylamino)-6-(2,6-dichlorophenyl)pyrido[2,3-d]pyrimidin-7-yl]-N′-(1,1-dimethylethyl)-urea] the activity rating ([1]; 10 mg/kg IV) was “active”, the “animals with CR” value ([1]; 10 mg/kg/day IV) was “one of six” and the ΔT/ΔC ([1]; 10 mg/kg/day IV, day 19 to day 38) was 17.45%. For the same compound, the activity rating ([1]; 25 mg/kg IV) was “highly active (ΔT/ΔC<0: highly active)”, the “animals with complete regressions (CR)” value ([1]; 25 mg/kg/day IV (MTD)) was 6 out of 6 and the animals with cures ([1]; 25 mg/kg/day IV (MTD)) was 6 out of 6. For the same compound, the DT/DC ([1]; 25 mg/kg/day IV, day 19 to day 38) was less than −14.27%, the body weight loss ([1]; 25 mg/kg/day IV, day 29, reversible) was 18.2% and the CR [1, 8] was 83%. For the same compound, the cures [1, 8] was “no”, the “log cell kill-gross (LCK-g)” value [1, 8] was 2.4 and the “tumor response, oral consolidation” value ([1]; oral 1x50 mg/kg daily day 31-95) was “tumors re-grew slowly”. The “tumor response, oral consolidation” value ([1]; oral 2x40 mg/kg daily day 31-95) was “complete disappearance of tumors”, the animals cured ([1]; oral 2x40 mg/kg/day) was “None” and the “maximum body weight loss” value ([1]; oral 2x40 mg/kg/day, day 28, rapidly reversible) was 14.4%. The “efficacy (in words)” value ([1]; oral once a day 19.8 mg/kg) was “no efficacy”, the ΔT/ΔC ([1]; oral once a day 19.8 mg/kg) was 41.99% and the DT/DC ([1]; oral once a day 31.5 mg/kg) was 19.72%. For the same compound, the DT/DC ([1]; oral once a day 50 mg/kg) was 7.61%, the ΔT/ΔC ([1]; oral, two daily dosages of 40 mg/kg/day, day 15 to day 40) was −3.80% and the “activity rating, IV induction phase” value [1, 9] was “highly active (ΔT/ΔC<0: highly active)”. The “tumor response, IV induction phase” value [1, 9] was “strong tumor regressions”, the MTD [2] was 25 mg/kg and the IC50 [3] was 788 nM. For the same compound, the IC50 ([4]; range over AML patient samples, read-out: IC50 values ranging (all tested samples)) was no less than 3.8 nM, the IC50 ([4]; resistant, N=4 samples, read-out: IC50 maximum, resistant samples) was greater than 1000 nM and the IC50 ([4]; resistant, N=4 samples, read-out: IC50 minimum, resistant samples) was 888 nM. For the same compound, the IC50 ([4]; sensitive, N=26, read-out: IC50 maximum, sensitive samples) was 532 nM, the IC50 ([4]; sensitive, N=26, read-out: IC50 median, sensitive samples) was 172 nM and the IC50 ([4]; sensitive, N=26, read-out: IC50 minimum, sensitive samples) was 3.8 nM. For the same compound, the “sensitive samples as share of the tested samples” value ([4]; classified against activity on normal hematopoietic progenitors) was 86.7%, the “AML cell samples displaying resistance in the high-risk cytogenetic group” value ([4]; high-risk group: patients 4, 11, 14, 19, 21, 23, 25, 27, 28, 29) was 3 and the “sensitivity of patient sample 11” value ([4]; patient sample 11) was “highly sensitive”. For the same compound, the LCK-g [5] was 0.1, the activity rating ([6]; 10 mg/kg) was “highly active (ΔT/ΔC<0: highly active)” and the “animals with complete regression” value ([6]; 10 mg/kg) was 10/10. For the same compound, the ΔT/ΔC ([6]; 10 mg/kg daily IV day 5-13 then IP to day 31) was −4.99%, the cures ([6]; 10 mg/kg) was 80% and the activity rating ([6]; 17 mg/kg) was “highly active (ΔT/ΔC<0: highly active)”. For the same compound, the “animals with complete regression” value ([6]; 17 mg/kg) was 10/10, the ΔT/ΔC ([6]; 17 mg/kg daily IV day 5-13 then IP to day 31) was −4.70% and the “body weight loss at nadir” value ([6]; 17 mg/kg daily IV day 5-13 then IP, day 22, reversible) was 16.2%. The cures ([6]; 17 mg/kg) was 60% and the IC50 [7] was 219 nM.
With Nc1ccn([C@@H]2O[C@H](CO)[C@@H](O)[C@@H]2O)c(=O)n1 [Cytarabine, cytarabine, reference compound] the CR [1, 8] was “no”, the cures [1, 8] was “no” and the “log cell kill-gross (LCK-g)” value [1, 8] was 1.6. For the same compound, the PR [1, 8] was “no” and the LCK-g [5] was 0.9.

Source: patent US20150005253A1, “NOVEL COMBINATIONS FOR TREATING ACUTE MYELOID LEUKAEMIA OR CHRONIC MYELOID LEUKAEMIA” (SANOFI, priority 2012, published 2015)
